In patent US9512107B2, “Therapeutically active compositions and their methods of use” (Agios Pharmaceuticals, Inc., priority 2012, dated 2016):
Substitutions are numbered along the chain they refer to.

Key:
[1] = target: T1, IDH2 R172K (Homo sapiens, UniProt P48735, R172K); test: IDH2 R172K enzymatic assay (NADPH cofactor depletion, diaphorase/resazurin readout); format: biochemical; conditions: read-out: Enz R172K
T1 sequence (P48735 40-452 R172K): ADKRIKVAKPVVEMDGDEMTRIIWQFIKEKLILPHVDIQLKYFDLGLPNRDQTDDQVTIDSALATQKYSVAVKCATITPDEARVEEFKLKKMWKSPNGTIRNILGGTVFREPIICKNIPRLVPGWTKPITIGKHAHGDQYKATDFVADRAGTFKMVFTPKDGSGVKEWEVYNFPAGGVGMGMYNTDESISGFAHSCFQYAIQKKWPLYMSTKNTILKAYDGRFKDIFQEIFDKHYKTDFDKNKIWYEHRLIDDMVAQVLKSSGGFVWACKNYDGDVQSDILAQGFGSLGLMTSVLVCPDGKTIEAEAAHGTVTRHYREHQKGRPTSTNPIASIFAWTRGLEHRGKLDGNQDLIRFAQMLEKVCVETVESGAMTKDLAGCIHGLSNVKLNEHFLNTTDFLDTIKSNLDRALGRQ
Summary of the method: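 Residual NADPH is read out as resorufin fluorescence after quenching with 36 μg/ml diaphorase and 60 μM resazurin in stop mix. The stop follows a 1 h room-temperature reaction started by a substrate mix of NADPH (50 μM) and α-KG (6.3 mM), with compound preincubated with enzyme for 1 h beforehand.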

[2] = target: T2, IDH2 R140Q (Homo sapiens, UniProt P48735, R140Q); test: IDH2 R140Q enzymatic assay (cofactor depletion, similar format); format: biochemical; conditions: read-out: Enz R140Q
T2 sequence (P48735 40-452 R140Q): T1 sequence (P48735 40-452 R172K) with R101Q, K133R

[3] = test system: U87MG pLVX-IDH2 R140Q-neo cells; test: U87MG pLVX-IDH2 R140Q-neo cell based assay, 2-HG in media by LC-MS at 48 hours; conditions: Homo sapiens, U-87 MG
Summary of the method: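 2-HG secreted into the medium was measured by LC-MS after 48 h of compound treatment (0.2% DMSO final) of U87MG pLVX-IDH2 R140Q-neo cells in DMEM/10% FBS. The same wells were assayed at 72 h by CellTiter-Glo luminescence for effects on growth.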

| IC50 [1] | IC50 [2] | IC50 [3] | SMILES |
| --- | --- | --- | --- |
| 100 to 1000 nM | 100 to 1000 nM | 100 to 1000 nM | COc1ccc(F)c(-c2nc(Nc3ccnc(C(F)(F)F)c3)nc(NC3COC3)n2)c1 [Compound 635, 6-(2-Fluoro-5-methoxy-phenyl)-N-oxetan-3-yl-N′-(2-trifluoromethyl-pyridin-4-yl)-[1,3,5]triazine-2,4-diamine] |
| 100 to 1000 nM | < 100 nM | < 100 nM | Fc1cc(Nc2nc(NC3[C@H]4COC[C@@H]34)nc(-c3ccccc3F)n2)ccn1 (stereo partly drawn) [Compound 636, 6-(2-Fluoro-phenyl)-N-(2-fluoro-pyridin-4-yl)-N′-(3-oxa-bicyclo[3.1.6]hex-6-yl)-[1,3,5]triazine-2,4-diamine] |
| 100 to 1000 nM | 100 to 1000 nM | < 100 nM | Fc1ccc(Nc2nc(NC3[C@H]4COC[C@@H]34)nc(-c3ccccc3F)n2)cn1 (stereo partly drawn) [Compound 637, 6-(2-Fluoro-phenyl)-N-(6-fluoro-pyridin-3-yl)-N′-(3-oxa-bicyclo[3.1.0]hex-6-yl)-[1,3,5]triazine-2,4-diamine] |
| 100 to 1000 nM | 100 to 1000 nM | < 100 nM | Fc1cncc(Nc2nc(NC3[C@H]4COC[C@@H]34)nc(-c3ccccc3F)n2)c1 (stereo partly drawn) [Compound 638, 6-(2-Fluoro-phenyl)-N-(5-fluoro-pyridin-3-yl)-N′-(3-oxa-bicyclo[3.1.0]hex-6-yl)-[1,3,5]triazine-2,4-diamine] |
| < 100 nM | 100 to 1000 nM | < 100 nM | CC(C)Nc1nc(Nc2ccnc(C(F)(F)F)c2)nc(-c2cccc(CO)c2)n1 [Compound 639, {3-[4-Isopropylamino-6-(2-trifluoromethyl-pyridin-4-ylamino)-[1,3,5]triazin-2-yl]-phenyl}-methanol] |
| < 100 nM | < 100 nM | < 100 nM | CC(C)Nc1nc(Nc2ccnc(C(F)(F)F)c2)nc(-c2cccc(O)c2)n1 [Compound 640, 3-[4-Isopropylamino-6-(2-trifluoromethyl-pyridin-4-ylamino)-[1,3,5]triazin-2-yl]-phenol] |
| < 100 nM | 100 to 1000 nM | < 100 nM | CC(C)(O)CNc1nc(Nc2ccnc(C(F)(F)F)c2)nc(-c2cccc(O)c2)n1 [Compound 641, 3-(4-((2-hydroxy-2-methylpropyl)amino)-6-((2-(trifluoromethyl)pyridin-4-yl)amino)-1,3,5-triazin-2-yl)phenol] |
| < 100 nM | 100 to 1000 nM | < 100 nM | CC(C)Nc1nc(Nc2cc(F)cc(F)c2)nc(-c2cc(O)cc(O)c2)n1 [Compound 642, 5-(4-((3,5-difluorophenyl)amino)-6-(isopropylamino)-1,3,5-triazin-2-yl)benzene-1,3-diol] |
| 100 to 1000 nM | 100 to 1000 nM | < 100 nM | CC(C)Nc1nc(Nc2cc(F)cc(F)c2)nc(-c2ccc(N)nc2)n1 [Compound 645, 6-(6-aminopyridin-3-yl)-N2-(3,5-difluorophenyl)-N4-isopropyl-1,3,5-triazine-2,4-diamine] |
| < 100 nM | 100 to 1000 nM | < 100 nM | CC(C)(C)Nc1nc(Nc2cc(F)cc(S(C)(=O)=O)c2)nc(-c2cccc(O)c2)n1 [Compound 646, 3-(4-(tert-butylamino)-6-((3-fluoro-5-(methylsulfonyl)phenyl)amino)-1,3,5-triazin-2-yl)phenol] |
| 100 to 1000 nM | 100 to 1000 nM | < 100 nM | CC(C)Nc1nc(Nc2ccnc(C(F)(F)F)c2)nc(-c2cc(F)cc(Cl)c2)n1 [Compound 647, 6-(3-chloro-5-fluorophenyl)-N2-isopropyl-N4-(2-(trifluoromethyl)pyridin-4-yl)-1,3,5-triazine-2,4-diamine] |
| 100 to 1000 nM | 100 to 1000 nM | < 100 nM | COc1ncccc1-c1nc(Nc2ccnc(C(F)(F)F)c2)nc(NC(C)C)n1 [Compound 648, N2-isopropyl-6-(2-methoxypyridin-3-yl)-N4-(2-(trifluoromethyl)pyridin-4-yl)-1,3,5-triazine-2,4-diamine] |
| 100 to 1000 nM | < 100 nM | 100 to 1000 nM | CC(C)Nc1nc(Nc2cc(F)cc(F)c2)nc(-c2cnc(N)nc2)n1 [Compound 649, 6-(2-aminopyrimidin-5-yl)-N2-(3,5-difluorophenyl)-N4-isopropyl-1,3,5-triazine-2,4-diamine] |
| 1000 to 10000 nM | 100 to 1000 nM | 100 to 1000 nM | CC(C)Nc1nc(Nc2ccnc(C(F)(F)F)c2)nc(-c2cccc(=O)[nH]2)n1 [Compound 650, 6-(4-(isopropylamino)-6-((2-(trifluoromethyl)pyridin-4-yl)amino)-1,3,5-triazin-2-yl)pyridin-2(1H)-one] |
| 100 to 1000 nM | 100 to 1000 nM | < 100 nM | CC(C)Nc1nc(Nc2ccnc(C(F)(F)F)c2)nc(-c2cccc(C(N)=O)c2)n1 [Compound 651] |
| 100 to 1000 nM | 100 to 1000 nM | 100 to 1000 nM | CC(C)Nc1nc(Nc2ccnc(C(F)(F)F)c2)nc(-c2cccc(C(O)C(F)(F)F)c2)n1 (stereo not drawn) [Compound 652, 2,2,2-trifluoro-1-(3-(4-(isopropylamino)-6-((2-(trifluoromethyl)pyridin-4-yl)amino)-1,3,5-triazin-2-yl)phenyl)ethanol] |
| 100 to 1000 nM | 100 to 1000 nM | < 100 nM | CC(C)Nc1nc(Nc2ccnc(C(F)(F)F)c2)nc(-c2cccc([S+](C)[O-])c2)n1 (stereo not drawn) [Compound 653, N-Isopropyl-6-(3-methanesulfinyl-phenyl)-N′-(2-trifluoromethyl-pyridin-4-yl)-[1,3,5]triazine-2,4-diamine] |
| > 10000 nM | 100 to 1000 nM | < 100 nM | CC(C)Nc1nc(Nc2ccnc(C(F)(F)F)c2)nc(-c2cccc(CN)c2)n1 [Compound 654, 6-(3-(aminomethyl)phenyl)-N2-isopropyl-N4-(2-(trifluoromethyl)pyridin-4-yl)-1,3,5-triazine-2,4-diamine] |
| 100 to 1000 nM | 100 to 1000 nM | 100 to 1000 nM | COc1cc(Cl)cc(-c2nc(Nc3ccnc(C(F)(F)F)c3)nc(NC(C)C)n2)c1 [Compound 655, 6-(3-chloro-5-methoxyphenyl)-N2-isopropyl-N4-(2-(trifluoromethyl)pyridin-4-yl)-1,3,5-triazine-2,4-diamine] |
| 100 to 1000 nM | 100 to 1000 nM | < 100 nM | CC(C)Nc1nc(Nc2ccnc(C(F)(F)F)c2)nc(-c2cccc(S(C)(=O)=O)c2)n1 [Compound 657, N-Isopropyl-6-(3-methanesulfonyl-phenyl)-N′-(2-trifluoromethyl-pyridin-4-yl)-[1,3,5]triazine-2,4-diamine] |
| < 100 nM | 100 to 1000 nM | < 100 nM | CC(C)Nc1nc(Nc2ccnc(C(F)(F)F)c2)nc(-c2cc(O)cc(F)c2)n1 [Compound 658, 3-Fluoro-5-[4-isopropylamino-6-(2-trifluoromethyl-pyridin-4-ylamino)-[1,3,5]triazin-2-yl]-phenol] |
| 100 to 1000 nM | 100 to 1000 nM | 100 to 1000 nM | CC(C)(C)OC(=O)N1CCC(Nc2nc(Nc3ccccc3)nc(-c3ccccc3)n2)CC1 [Compound 667, 4-(4-Phenyl-6-phenylamino-[1,3,5]triazin-2-ylamino)-piperidine-1-carboxylic acid tert-butyl ester] |
| < 100 nM | 100 to 1000 nM | < 100 nM | CC(C)Nc1nc(Nc2ccnc(C3(C#N)CC3)c2)nc(-c2cccc(C(F)(F)F)n2)n1 [Compound 669, 1-{4-[4-Isopropylamino-6-(6-trifluoromethyl-pyridin-2-yl)-[1,3,5]triazin-2-ylamino]-pyridin-2-yl}-cyclopropanecarbonitrile] |
| 100 to 1000 nM | 100 to 1000 nM | < 100 nM | CC(C)(O)CNc1nc(Nc2cnc(F)c(Cl)c2)nc(-c2cccc(C(F)(F)F)n2)n1 [Compound 670, 1-[4-(5-Chloro-6-fluoro-pyridin-3-ylamino)-6-(6-trifluoromethyl-pyridin-2-yl)-[1,3,5]triazin-2-ylamino]-2-methyl-propan-2-ol] |
| < 100 nM | 100 to 1000 nM | < 100 nM | CC(C)Nc1nc(Nc2ccnc(C(C)(C)C#N)c2)nc(-c2cccc(C(F)(F)F)n2)n1 [Compound 671, 2-{4-[4-Isopropylamino-6-(6-trifluoromethyl-pyridin-2-yl)-[1,3,5]triazin-2-ylamino]-pyridin-2-yl}-2-methyl-propionitrile] |
